In patent publication US20220023273A1, “METHODS FOR TREATING SYMPTOMS AND DISORDERS ASSOCIATED WITH LYSOSOMAL STORAGE DISEASES” (GENZYME CORPORATION, priority 2019, published 2022):
Read-outs that look alike come from different tables or passages of the source.

Legend:
Assay type in all cases: in vivo, human
[1] = test system: adult male Fabry patients; experiment: Fabry clinical study: SF-36 bodily pain and abdominal pain assessment; settings: Fabry males; for patients with decreased severity of abdominal pain / patients with improved overall bodily pain scores (SF-36) / patients with reduced number of days with gastrointestinal pain: 15 mg/day oral
From the text: Each sample was scored independently by 3 pathologists for the presence of GL-3 inclusions on a four-point scale, and rated as 0 (no/trace), 1 (mild), 2 (moderate), or 3 (severe) according to Eng et al., N. Engl. J. Med. 345:9-16 (2001). A single score per patient per time point was derived by taking the score rated by the majority of the three pathologists. If a majority score could not be derived, then the median score was used (resulting in some fractional scores). Plasma samples were also analyzed for GL-3, lyso-GL-3, GL-1 and GM3 at baseline and weeks 12, 26, 52 and 156. Pain scores and abdominal symptoms were analyzed at baseline and weeks 12, 26, 52, 104 and 156 using the SF-36 scoring protocol.
Patients were assessed using the Short Form-36 (SF-36) questionnaire on numerous visits from baseline to week 156. This is a 36-item questionnaire used to measure 8 various aspects of health (vitality, physical functioning, bodily pain, general health perceptions, physical role functioning, emotional role functioning, social role functioning and mental health). The score for each of the eight aspects ranges from 0 (maximum disability) to 100 (no disability), and thus, higher scores indicate good health condition. In addition, gastrointestinal symptoms, including abdominal pain, abdominal distention, and bowl movements, were assessed using a modified version of the inflammatory bowel severity scoring system. Particular questions asked as part of these assessments included: (1) whether the patient suffered abdominal pain within the last ten days, (2) what was the severity of abdominal pain suffered in the last ten days using a 0 (no pain) to 100 (very severe pain) scale, and (3) on how many days within the last ten days did the patient have abdominal pain.

[2] = test system: chitotriosidase (CHITO), GM3, GPNMB, ceramide; experiment: GD3 clinical study: exploratory biomarkers; settings: GD3, 15 mg/day oral + imiglucerase
Protocol: Four exploratory biomarkers were quantified in plasma, serum and/or CSF of GD3 patients at week 4 and week 26: chitotriosidase (CHITO; an enzyme known to be elevated in GD patients) was measured in CSF and serum; GM3 (a glycosphingolipid marker known to be elevated in GD patients) was measured in CSF and plasma; and glycoprotein nonmetastatic melanoma protein B (GPNMB; reportedly a biomarker of neuropathic GD3) was measured in CSF. The results are shown in the table below as percent change from baseline at week 4 and week 26 for each parameter:
In addition, exploratory biomarkers were quantified in CSF of GD3 patients: ceramide (the precursor of GL-1), chitotriosidase (CHITO), GM3, and GPNMB.

[3] = GD3 clinical study: pharmacokinetics in plasma and CSF; settings: for AUC: human, plasma, po, Day 1 (N = 5), read-out: AUC0_24 (mean ± SD)
From the text: Patients 18 years of age or older with a clinical diagnosis of GD3 and documented deficiency of acid beta-glucosidase activity having received treatment with ERT for at least 3 years and with imiglucerase (Cerezyme) at a stable monthly dose for at least 6 months prior to enrollment were included in the study. Patients must have reached the following GD therapeutic goals: hemoglobin level of ≥11.0 g/dL for females and ≥12.0 g/dL for males; platelet count ≥100 000/mm3; spleen volume <10 multiples of normal (MN), or total splenectomy (provided the splenectomy occurred >3 years prior to randomization); liver volume <1.5 MN; and no bone crisis and free of symptomatic bone disease such as bone pain attributable to osteonecrosis and/or pathological fractures within the last year. Patients must have GD3 featuring oculomotor apraxia (supranuclear gaze palsy) characterized by a horizontal saccade abnormality.
During the study patients were evaluated for safety and tolerability, CSF and plasma biomarkers (glucosylceramide, GL-1; glucosylsphingosine, lyso-GL1), pharmacokinetics, markers for systemic disease (spleen and liver volume measured by magnetic resonance imaging (MRI), platelet count, hemoglobin levels), indicia of interstitial lung disease (high resolution pulmonary computed tomography (CT)), and horizontal saccadic eye movement.
A second interim analysis was performed when the first 6 patients had reached 52-weeks of treatment, as described above in section (A). This analysis included Patients 1-5 as described in section (A), as well as new Patient 6. All six patients had L444P (1448T/C) homozygous Gaucher phenotype.

CC(C)(NC(=O)O[C@@H]1CN2CCC1CC2)c1csc(-c2ccc(F)cc2)n1 [Compound 2, (S)-quinuclidin-3-yl (2-(2-(4-fluorophenyl)thiazol-4-yl)propan-2-yl)carbamate]
abdominal pain and discomfort ([1]; 15 mg/day): consistently reduces abdominal pain and discomfort | patients with decreased severity of abdominal pain ([1]; week 26, patients with gastrointestinal pain at baseline): four out of five | patients with improved overall bodily pain scores (SF-36) ([1]; week 26): Seven of nine | patients with reduced number of days with gastrointestinal pain ([1]; week 26): five of five | patients with decreased severity of abdominal pain ([1]; week 156, patients with gastrointestinal pain at baseline): four out of four | patients with improved overall bodily pain scores (SF-36) ([1]; week 156): three of six | patients with reduced number of days with gastrointestinal pain ([1]; week 156): three of four | GM3 in CSF ([2]; 4, 26 and 52 weeks, the four of six patients with measurable GM3 at baseline): undetectable | CSF concentrations of ceramide, CHITO or GPNMB ([2]; after 52 weeks): no significant changes | Compound 2 in CSF, concentration 2-4 hours post dose (mean) ([3]; Day 1 (N = 6), GD3, 15 mg/day oral + imiglucerase): <LLOQ | time at which steady state concentration is reached in plasma and CSF ([3]; GD3, 15 mg/day oral + imiglucerase): ≤ 4 Week | Patient 5: lower concentrations of Compound 2 in plasma and CSF ([3]; Week 26, believed due to compliance or dosing errors): about 50% | Patient 5: concentrations of Compound 2 in plasma and CSF ([3]; Week 52, believed due to compliance or dosing errors): undetectable | crossing of the blood-brain barrier ([3]; all patients, GD3, 15 mg/day oral + imiglucerase): effectively cross the blood-brain barrier | AUC ([3]; 26-week interim, GD3, 15 mg/day oral + imiglucerase): 715 ± 225 ng·h/mL | AUC ([3]; 52-week interim, GD3, 15 mg/day oral + imiglucerase): 729 ± 205 ng·h/mL
